This note sets out measurements from patent US9206156B2, “Substituted indole derivatives” (GRÜNENTHAL GMBH, priority 2008, dated 2015).

Structures are written as SMILES.

The target of this assay is T1, human μ-opiate receptor (Homo sapiens, UniProt P35372).
T1 construct: purchased NEN, Zaventem, Belgium RB-HOM; host or cells: CHO-K1 cells (membrane preparation)
In words: μ-opiate receptor binding assay with [3H] naloxone (WGA-SPA beads). Conditions: 1 μmol/l test substance; 1 nmol/l [3H] naloxone; CHO-K1 cell membranes expressing human μ-opiate receptor. Here is the method: The receptor affinity to the human μ-opiate receptor was determined in a homogeneous batch in microtitre plates. To this end, dilution series of the substituted indole derivative to be tested were incubated for 90 minutes at room temperature with a receptor membrane preparation (15-40 μg protein per 250 μl incubation batch) of CHO-K1 cells, which express the human μ-opiate receptor (RB—HOM receptor membrane preparation from NEN, Zaventem, Belgium), in the presence of 1 nmol/l of the radioactive ligand [^3H] naloxone (NET719, NEN, Zaventem, Belgium) and 1 mg of WGA-SPA beads (wheat germ agglutinin SPA beads from Amersham/Pharmacia, Freiburg, Germany) in a total volume of 250 μl. 50 mmol/l tris-HCl supplemented with 0.05 wt. % sodium azide and 0.06 wt. % bovine serum albumin were used as the incubation buffer. In order to determine the non-specific binding, 25 μmol/l of naloxone were also added. At the end of the ninety-minute incubation period the microtitre plates were centrifuged for 20 minutes at 1000 g and the radioactivity was measured in a β counter (Microbeta-Trilux, PerkinElmer Wallac, Freiburg, Germany). The percentage displacement of the radioactive ligand from its binding to the human μ-opiate receptor was determined at a test substance concentration of 1 μmol/l and stated as the percentage inhibition (% inhibition) of the specific binding. In some cases the percentage displacement due to differing concentrations of the compounds having the general formula I to be tested was used to calculate the IC50 inhibition concentrations which bring about a 50-percent displacement of the radioactive ligand. Ki values for the test substances were obtained by extrapolation using the Cheng-Prusoff equation.

T1 sequence (P35372 whole entry): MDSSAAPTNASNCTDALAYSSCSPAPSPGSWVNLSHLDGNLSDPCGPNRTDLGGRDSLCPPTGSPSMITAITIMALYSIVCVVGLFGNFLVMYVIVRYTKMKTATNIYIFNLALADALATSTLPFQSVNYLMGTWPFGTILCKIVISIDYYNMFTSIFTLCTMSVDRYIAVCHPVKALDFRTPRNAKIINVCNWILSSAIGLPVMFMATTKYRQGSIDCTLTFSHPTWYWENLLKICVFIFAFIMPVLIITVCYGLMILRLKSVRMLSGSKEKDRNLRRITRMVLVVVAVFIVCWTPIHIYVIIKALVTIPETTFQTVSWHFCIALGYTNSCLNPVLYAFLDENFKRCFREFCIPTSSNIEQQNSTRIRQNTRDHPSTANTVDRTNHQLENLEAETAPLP

Usually inhibition stands for how much of the control response was suppressed. Higher therefore signals strong suppression. `CCCCC1(N(C)C)CCN(CCN(C)C(=O)c2ccc3ccn(C)c3c2)CC1` [Example 38, N-(2-(4-Butyl-4-(dimethylamino)piperidin-1-yl)ethyl)-N,1-dimethyl-1H-indole-6-carboxamide]: at 1 µM the inhibition was 68%.

In turn, `CN(CCN1CCC(c2ccccc2)(N2CCCC2)CC1)C(=O)c1c[nH]c2ccccc12` [Example 46, N-Methyl-N-(2-(4-phenyl-4-(pyrrolidin-1-yl)piperidin-1-yl)ethyl)-1H-indole-3-carboxamide] registered an inhibition at 1 µM of 20%. Same read-out and setting: next, `CCCCC1(N(C)C)CCN(CCN(C)C(=O)c2c[nH]c3ccccc23)CC1` [Example 47, N-(2-(4-Butyl-4-(dimethylamino)piperidin-1-yl)ethyl)-N-methyl-1H-indole-3-carboxamide]: 61%; `CC(C)C(CC(=O)N(C)CCN1CCC(c2ccccc2)(N2CCCC2)CC1)c1c[nH]c2ccccc12` (centres unmarked) [Example 32, 3-(1H-Indol-3-yl)-N,4-dimethyl-N-(2-(4-phenyl-4-(pyrrolidin-1-yl)piperidin-1-yl)ethyl)pentanamide]: 61%. Same read-out and setting: for `COc1ccc2[nH]c(C(=O)N(C)CCN3CCC(c4ccccc4)(N4CCCC4)CC3)cc2c1` [Example 64, 5-Methoxy-N-methyl-N-(2-(4-phenyl-4-(pyrrolidin-1-yl)piperidin-1-yl)ethyl)-1H-indole-2-carboxamide] the value was 18%; for `CCCCC1(N(C)C)CCN(CCN(C)Cc2ccc3[nH]ccc3c2)CC1` [Example 141, 1-(2-(((1H-indol-5-yl)methyl)(methyl)amino)ethyl)-4-butyl-N,N-dimethylpiperidin-4-amine], 82%. Same read-out and setting: next, `CCCCC1(N(C)C)CCN(CCN(C)C(=O)c2ccc3cc[nH]c3c2)CC1` [Example 55, N-(2-(4-Butyl-4-(dimethylamino)piperidin-1-yl)ethyl)-N-methyl-1H-indole-6-carboxamide]: 66%; `CN(CCN1CCC(c2ccccc2)(N2CCCC2)CC1)Cc1cccc2[nH]ccc12` [Example 159, N-((1H-indol-4-yl)methyl)-N-methyl-2-(4-phenyl-4-(pyrrolidin-1-yl)piperidin-1-yl)ethanamine]: 64%. As to `CCCCC1(N(C)C)CCN(CCN(C)C(=O)c2cc3cc(OC)ccc3[nH]2)CC1` [Example 65, N-(2-(4-Butyl-4-(dimethylamino)piperidin-1-yl)ethyl)-5-methoxy-N-methyl-1H-indole-2-carboxamide], the inhibition at 1 µM was determined as 42%. The same measure, in the same setting: next, `CC(CC(=O)N(C)CCN1CCC(c2ccccc2)(N2CCCC2)CC1)c1c[nH]c2ccccc12` (centres unmarked) [Example 57, 3-(1H-Indol-3-yl)-N-methyl-N-(2-(4-phenyl-4-(pyrrolidin-1-yl)piperidin-1-yl)ethyl)butanamide]: 45%; `CN(CCN1CCC(c2ccccc2)(N2CCCC2)CC1)Cc1c[nH]c2ccccc12` [Example 137, N-((1H-indol-3-yl)methyl)-N-methyl-2-(4-phenyl-4-(pyrrolidin-1-yl)piperidin-1-yl)ethanamine]: 82%; `CN(CCN1CCC(c2ccccc2)(N2CCCC2)CC1)C(=O)c1cccc2c1ccn2C` [Example 40, N,1-Dimethyl-N-(2-(4-phenyl-4-(pyrrolidin-1-yl)piperidin-1-yl)ethyl)-1H-indole-4-carboxamide]: 40%.

On to `CN(CCN1CCC(c2ccccc2)(N2CCCC2)CC1)C(=O)CCc1cn(C)c2ccccc12` [Example 48, N-Methyl-3-(1-methyl-1H-indol-3-yl)-N-(2-(4-phenyl-4-(pyrrolidin-1-yl)piperidin-1-yl)ethyl)propanamide], for which the inhibition at 1 µM worked out at 14%. `CCCCC1(N(C)C)CCN(CCN(C)Cc2cccc3[nH]ccc23)CC1` [Example 160, 1-(2-(((1H-indol-4-yl)methyl)(methy)amino)ethyl)-4-butyl-N,N-dimethylpiperidin-4-amine]: the “% Inhibition (μ) at 1 μM” value amounted to 87%.
